Consider 27 compounds from patent US20230024302A1, “2,3,5-TRISUBSTITUTED PYRAZOLO[1,5-A]PYRIMIDINE COMPOUNDS” (Arcus Biosciences, Inc., priority 2019, published 2023).

What is called IC50 is the concentration needed to halve the response being measured.

Like-named read-outs stand apart in the source and are kept apart here. A value given as a limit tells only on which side of the number the result lay.

For one assay, the target named is T1, PI3Kγ (p120γ) (Homo sapiens, UniProt P48736).
T1 construct: purchased Promega V1761
T1 sequence (P48736 whole entry): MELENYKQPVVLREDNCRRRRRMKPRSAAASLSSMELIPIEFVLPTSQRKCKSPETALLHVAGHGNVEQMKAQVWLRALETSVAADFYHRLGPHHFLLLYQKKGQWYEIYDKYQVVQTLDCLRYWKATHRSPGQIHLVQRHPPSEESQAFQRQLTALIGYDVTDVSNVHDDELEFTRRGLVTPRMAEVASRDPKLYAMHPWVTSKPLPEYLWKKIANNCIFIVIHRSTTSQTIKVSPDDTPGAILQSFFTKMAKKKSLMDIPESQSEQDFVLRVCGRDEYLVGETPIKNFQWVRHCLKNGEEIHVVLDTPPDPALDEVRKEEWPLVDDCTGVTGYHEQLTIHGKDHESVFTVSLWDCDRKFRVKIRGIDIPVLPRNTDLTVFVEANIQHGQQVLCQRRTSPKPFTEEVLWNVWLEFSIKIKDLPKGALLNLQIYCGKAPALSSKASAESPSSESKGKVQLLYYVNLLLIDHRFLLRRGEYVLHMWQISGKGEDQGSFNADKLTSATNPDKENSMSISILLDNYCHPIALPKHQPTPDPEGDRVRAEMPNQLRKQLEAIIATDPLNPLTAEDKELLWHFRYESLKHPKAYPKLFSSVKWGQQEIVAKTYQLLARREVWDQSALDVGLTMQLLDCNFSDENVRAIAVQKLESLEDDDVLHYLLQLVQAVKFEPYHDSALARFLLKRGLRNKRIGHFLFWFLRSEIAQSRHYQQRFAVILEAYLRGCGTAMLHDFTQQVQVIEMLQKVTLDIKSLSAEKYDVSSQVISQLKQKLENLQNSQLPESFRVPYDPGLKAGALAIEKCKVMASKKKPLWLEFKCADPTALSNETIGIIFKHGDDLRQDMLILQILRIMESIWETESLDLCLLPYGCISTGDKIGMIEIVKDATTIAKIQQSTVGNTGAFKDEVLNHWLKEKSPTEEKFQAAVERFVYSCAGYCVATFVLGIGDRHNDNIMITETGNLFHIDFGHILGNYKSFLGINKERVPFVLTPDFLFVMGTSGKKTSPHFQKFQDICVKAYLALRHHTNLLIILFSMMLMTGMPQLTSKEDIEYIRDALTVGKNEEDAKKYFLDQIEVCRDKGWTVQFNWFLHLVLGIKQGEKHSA
The experiment in a line: Inhibition of PI3K kinase activity (ADP Glo), PI3Kγ. The conditions noted are these: read-out: biochemical potency (PI3Kγ IC50). Summed up: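 IC50 values come from a 4-parameter nonlinear fit of ADP-Glo luminescence, which measures ADP produced as PIP2 is phosphorylated to PIP3. The p120γ enzyme (2× stock 8 nM) sat with compound 1 h at rt before substrate (2× stocks: 50 μM ATP, 0.1 mg/ml PIP2) was added. Phosphorylation then proceeded 60 min at rt.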
(ADP-Glo turns the ADP formed in a reaction into a luminescent signal.)

Another assay concerns the target T2, PI3Kγ (Homo sapiens, UniProt P48736).
T2 construct: host or cells: THP-1
Put plainly: PI3Kγ cellular assay in THP-1 cells (AKT pS473 AlphaLISA). The assay is classed as cell-based. The gist of the method:
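Endogenous AKT S473 phosphorylation, detected by AlphaLISA in lysates, serves as the PI3Kγ activity read-out in stimulated, serum-starved THP-1 cells (1.8×10^5/well).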

Where [1] appears, read: Table 1, rhMCP-1 stimulated AKT pS473, read-out: cellular potency (PI3Kγ IC50).
[2] abbreviates: Table 2, rhMCP-1 stimulated AKT pS473, read-out: cellular potency (PI3Kγ IC50).

T2 sequence (P48736 whole entry): as above

`C[C@H](CO)NC(=O)c1c(N)nn2ccc(-c3cc4c(c(OCC(F)(F)F)c3)C(=O)N([C@@H](C)C3CC3)C4)nc12` [Example 156, 2-Amino-5-{2-[(1S)-1-cyclopropylethyl]-1-oxo-7-(2,2,2-trifluoroethoxy)-2,3-dihydro-1H-isoindol-5-yl}-N-[(2R)-1-hydroxypropan-2-yl]pyrazolo[1,5-a]pyrimidine-3-carboxamide]: the IC50 is < 100 nM at PI3Kγ (p120γ) (Table 1, p120γ) and < 100 nM at PI3Kγ (setting [1]).

In the case of `C[C@@H](C1CC1)N1Cc2cc(-c3ccn4nc(N)c(C(=O)NC5CC5)c4n3)cc(OC3CC(F)(F)C3)c2C1=O` [Example 157, 2-Amino-N-cyclopropyl-5-{2-[(1S)-1-cyclopropylethyl]-7-(3,3-difluorocyclobutoxy)-1-oxo-2,3-dihydro-1H-isoindol-5-yl}pyrazolo[1,5-a]pyrimidine-3-carboxamide], the IC50 at PI3Kγ (p120γ) (Table 1, p120γ) was < 100 nM; at PI3Kγ (setting [1]) it was < 100 nM.

As to `C[C@@H](C1CC1)N1Cc2cc(-c3ccn4nc(N)c(C(=O)NC5CC5)c4n3)cc(OC(F)F)c2C1=O` [Example 158, 2-Amino-N-cyclopropyl-5-{2-[(1S)-1-cyclopropylethyl]-7-(difluoromethoxy)-1-oxo-2,3-dihydro-1H-isoindol-5-yl}pyrazolo[1,5-a]pyrimidine-3-carboxamide], the IC50 at PI3Kγ (p120γ) (Table 1, p120γ) was < 100 nM; on PI3Kγ (setting [1]), < 100 nM.

As for `C[C@@H](C1CC1)N1Cc2cc(-c3ccn4nc(N)c(C(=O)N[C@@H](CO)C5CC5)c4n3)cc(OC(F)F)c2C1=O` [Example 159, 2-Amino-N-[(1R)-1-cyclopropyl-2-hydroxyethyl]-5-{2-[(1S)-1-cyclopropylethyl]-7-(difluoromethoxy)-1-oxo-2,3-dihydro-1H-isoindol-5-yl}pyrazolo[1,5-a]pyrimidine-3-carboxamide], the IC50 on PI3Kγ (p120γ) (Table 1, p120γ) was < 100 nM; on PI3Kγ (setting [1]) it was < 100 nM.

In the case of `C[C@@H](C1CC1)N1Cc2cc(-c3ccn4nc(N)c(C(=O)N[C@H]5CC[C@@](C)(O)CC5)c4n3)cc(OC(F)F)c2C1=O` [Example 160, 2-Amino-5-{2-[(1S)-1-cyclopropylethyl]-7-(difluoromethoxy)-1-oxo-2,3-dihydro-1H-isoindol-5-yl}-N-[cis-4-hydroxy-4-methylcyclohexyl]pyrazolo[1,5-a]pyrimidine-3-carboxamide], the IC50 on PI3Kγ (p120γ) (Table 1, p120γ) was < 100 nM; on PI3Kγ (setting [1]), < 100 nM.

In the case of `C[C@@H](C1CC1)N1Cc2cc(-c3ccn4nc(N)c(C(=O)Nc5cccnc5)c4n3)cc(OC(F)F)c2C1=O` [Example 161, 2-Amino-5-{2-[(1S)-1-cyclopropylethyl]-7-(difluoromethoxy)-1-oxo-2,3-dihydro-1H-isoindol-5-yl}-N-(pyridin-3-yl)pyrazolo[1,5-a]pyrimidine-3-carboxamide], the IC50 on PI3Kγ (p120γ) (Table 1, p120γ) was < 100 nM; at PI3Kγ (setting [1]), < 100 nM.

Consider `C[C@@H](C1CC1)N1Cc2cc(-c3ccn4nc(N)c(C(=O)NC5CC5)c4n3)cc(Cl)c2C1=O` [Example 162, 2-Amino-5-{7-chloro-2-[(1S)-1-cyclopropylethyl]-1-oxo-2,3-dihydro-1H-isoindol-5-yl}-N-cyclopropylpyrazolo[1,5-a]pyrimidine-3-carboxamide], for which the concentration for half-maximal inhibition (IC50) on PI3Kγ (p120γ) (Table 1, p120γ) is < 100 nM; at PI3Kγ (setting [1]), < 100 nM.

For the compound `C[C@H](CO)NC(=O)c1c(N)nn2ccc(-c3cc(Cl)c4c(c3)CN([C@@H](C)C3CC3)C4=O)nc12` [Example 163, 2-Amino-5-{7-chloro-2-[(1S)-1-cyclopropylethyl]-1-oxo-2,3-dihydro-1H-isoindol-5-yl}-N-[(2R)-1-hydroxypropan-2-yl]pyrazolo[1,5-a]pyrimidine-3-carboxamide], the IC50 at PI3Kγ (p120γ) (Table 1, p120γ) is < 100 nM; on PI3Kγ (setting [1]), < 100 nM.

Take `CC[C@H](N1Cc2cc(-c3ccn4nc(N)c(C(=O)N[C@H](C)CO)c4n3)cc(Cl)c2C1=O)C(F)(F)F` [Example 164, 2-Amino-5-{7-chloro-1-oxo-2-[(2S)-1,1,1-trifluorobutan-2-yl]-2,3-dihydro-1H-isoindol-5-yl}-N-[(2R)-1-hydroxypropan-2-yl]pyrazolo[1,5-a]pyrimidine-3-carboxamide]: the IC50 at PI3Kγ (p120γ) (Table 1, p120γ) was < 100 nM; on PI3Kγ (setting [1]), < 100 nM.

As to `C[C@@H](C1CC1)N1Cc2cc(-c3ccn4nc(N)c(C(=O)NC5CC5)c4n3)cc(C3CC3)c2C1=O` [Example 165, 2-Amino-N-cyclopropyl-5-{7-cyclopropyl-2-[(1S)-1-cyclopropylethyl]-1-oxo-2,3-dihydro-1H-isoindol-5-yl}pyrazolo[1,5-a]pyrimidine-3-carboxamide], the IC50 on PI3Kγ (p120γ) (Table 1, p120γ) was < 100 nM; on PI3Kγ (setting [1]), < 100 nM.

Regarding `C[C@H](CO)NC(=O)c1c(N)nn2ccc(-c3cc4c(c(C5CC5)c3)C(=O)N([C@@H](C)C3CC3)C4)nc12` [Example 166, 2-Amino-5-{7-cyclopropyl-2-[(1S)-1-cyclopropylethyl]-1-oxo-2,3-dihydro-1H-isoindol-5-yl}-N-[(2R)-1-hydroxypropan-2-yl]pyrazolo[1,5-a]pyrimidine-3-carboxamide], the IC50 is < 100 nM at PI3Kγ (p120γ) (Table 1, p120γ) and < 100 nM on PI3Kγ (setting [1]).

On to `C[C@@H](C1CC1)N1Cc2cc(-c3ccn4nc(N)c(C(=O)N[C@@H](CO)C5CC5)c4n3)cc(C3CC3)c2C1=O` [Example 167, 2-Amino-5-{7-cyclopropyl-2-[(1S)-1-cyclopropylethyl]-1-oxo-2,3-dihydro-1H-isoindol-5-yl}-N-[(1R)-1-cyclopropyl-2-hydroxyethyl]pyrazolo[1,5-a]pyrimidine-3-carboxamide], for which the IC50 on PI3Kγ (p120γ) (Table 1, p120γ) was < 100 nM; at PI3Kγ (setting [1]), < 100 nM.

Turning to `CCc1cc(-c2ccn3nc(N)c(C(=O)N[C@@H](CO)C4CC4)c3n2)cc2c1C(=O)N([C@@H](C)C1CC1)C2` [Example 168, 2-Amino-N-[(1R)-1-cyclopropyl-2-hydroxyethyl]-5-{2-[(1S)-1-cyclopropylethyl]-7-ethyl-1-oxo-2,3-dihydro-1H-isoindol-5-yl}pyrazolo[1,5-a]pyrimidine-3-carboxamide], the IC50 was < 100 nM on PI3Kγ (p120γ) (Table 1, p120γ) and < 100 nM on PI3Kγ (setting [1]).

As for `CC(C)c1cc(-c2ccn3nc(N)c(C(=O)NC4CC4)c3n2)cc2c1C(=O)N([C@@H](C)C1CC1)C2` [Example 169, 2-Amino-N-cyclopropyl-5-{2-[(1S)-1-cyclopropylethyl]-1-oxo-7-(propan-2-yl)-2,3-dihydro-1H-isoindol-5-yl}pyrazolo[1,5-a]pyrimidine-3-carboxamide], the IC50 on PI3Kγ (p120γ) (Table 1, p120γ) is < 100 nM; on PI3Kγ (setting [1]), < 100 nM.

For the compound `C[C@@H](C1CC1)N1Cc2cc(-c3ccn4nc(N)c(C(=O)NC5CC5)c4n3)cc(C(C)(C)O)c2C1=O` [Example 170, 2-Amino-N-cyclopropyl-5-{2-[(1S)-1-cyclopropylethyl]-7-(2-hydroxypropan-2-yl)-1-oxo-2,3-dihydro-1H-isoindol-5-yl}pyrazolo[1,5-a]pyrimidine-3-carboxamide], the IC50 is < 100 nM at PI3Kγ (p120γ) (Table 1, p120γ) and < 100 nM on PI3Kγ (setting [1]).

Take `C[C@@H](C1CC1)N1Cc2cc(-c3ccn4nc(N)c(C(=O)N[C@H]5CC[C@@](C)(O)CC5)c4n3)cc(C(C)(C)O)c2C1=O` [Example 171, 2-Amino-5-{2-[(1S)-1-cyclopropylethyl]-7-(2-hydroxypropan-2-yl)-1-oxo-2,3-dihydro-1H-isoindol-5-yl}-N-[cis-4-hydroxy-4-methylcyclohexyl]pyrazolo[1,5-a]pyrimidine-3-carboxamide]: the IC50 is < 100 nM at PI3Kγ (p120γ) (Table 1, p120γ) and < 100 nM at PI3Kγ (setting [1]).

On to `Cc1cc(-c2ccn3nc(N)c(C(=O)N[C@H]4CC[C@H](O)CC4)c3n2)cc2c1C(=O)N([C@@H](C)C1CC1)C2` [Example 172], for which the IC50 at PI3Kγ (p120γ) (Table 2, p120γ) is < 100 nM; on PI3Kγ (setting [2]), 100 to 1000 nM.

As to `Cc1cc(-c2ccn3nc(N)c(C(=O)N[C@@H](C)c4ccncc4)c3n2)cc2c1C(=O)N([C@@H](C)C1CC1)C2` [Example 173], the IC50 is < 100 nM at PI3Kγ (p120γ) (Table 2, p120γ) and 100 to 1000 nM at PI3Kγ (setting [2]).

With `Cc1cc(-c2ccn3nc(N)c(C(=O)N4CCC4CO)c3n2)cc2c1C(=O)N(C(C)C1CC1)C2` (stereo not drawn) [Example 174], the IC50 on PI3Kγ (p120γ) (Table 2, p120γ) is < 100 nM; on PI3Kγ (setting [2]) it was 100 to 1000 nM.

Turning to `Cc1cc(-c2ccn3nc(N)c(C(=O)N[C@H](C)c4cnn(C)c4)c3n2)cc2c1C(=O)N([C@@H](C)C1CC1)C2` [Example 175], the IC50 at PI3Kγ (p120γ) (Table 2, p120γ) is < 100 nM; at PI3Kγ (setting [2]), 100 to 1000 nM.

As to `Cc1cc(-c2ccn3nc(N)c(C(=O)N[C@@H]4CCOC4)c3n2)cc2c1C(=O)N([C@@H](C)C1CC1)C2` [Example 176], the IC50 is < 100 nM on PI3Kγ (p120γ) (Table 2, p120γ) and 100 to 1000 nM on PI3Kγ (setting [2]).

As for `Cc1cc(-c2ccn3nc(N)c(C(=O)N[C@H]4CCOC4)c3n2)cc2c1C(=O)N([C@@H](C)C1CC1)C2` [Example 177], the IC50 at PI3Kγ (p120γ) (Table 2, p120γ) was < 100 nM; at PI3Kγ (setting [2]), 100 to 1000 nM.

`Cc1cc(-c2ccn3nc(N)c(C(=O)N[C@@H](C)c4nccs4)c3n2)cc2c1C(=O)N([C@@H](C)C1CC1)C2` [Example 178]: the IC50 on PI3Kγ (p120γ) (Table 2, p120γ) was < 100 nM; at PI3Kγ (setting [2]), 100 to 1000 nM.

Turning to `Cc1cc(-c2ccn3nc(N)c(C(=O)NC4CCNCC4)c3n2)cc2c1C(=O)N([C@@H](C)C1CC1)C2` [Example 179], the IC50 was < 100 nM on PI3Kγ (p120γ) (Table 2, p120γ) and 100 to 1000 nM on PI3Kγ (setting [2]).

Consider `Cc1cc(-c2ccn3nc(N)c(C(=O)NC4COC4)c3n2)cc2c1C(=O)N([C@@H](C)C1CC1)C2` [Example 180], for which the IC50 on PI3Kγ (p120γ) (Table 2, p120γ) was < 100 nM; on PI3Kγ (setting [2]), 100 to 1000 nM.

`Cc1cc(-c2ccn3nc(N)c(C(=O)NC4CCOCC4)c3n2)cc2c1C(=O)N([C@@H](C)C1CC1)C2` [Example 181]: the IC50 was < 100 nM at PI3Kγ (p120γ) (Table 2, p120γ) and 100 to 1000 nM at PI3Kγ (setting [2]).

On to `CO[C@H]1C[C@H](NC(=O)c2c(N)nn3ccc(-c4cc(C)c5c(c4)CN([C@@H](C)C4CC4)C5=O)nc23)C1` [Example 182], for which the IC50 was < 100 nM on PI3Kγ (p120γ) (Table 2, p120γ) and 100 to 1000 nM at PI3Kγ (setting [2]).
